From US20170114021A1, “HALOGEN-SUBSTITUTED COMPOUNDS” (priority 2014, published 2017)

Assays:
Assay type in all cases: in vivo
Ctenocephalides felis [1] = assay: Ctenocephalides felis in vitro contact test; settings: application rate 5 μg/cm^2; adult cat fleas; after 48 h
Experimental: Ctenocephalides felis—In Vitro Contact Test
(§1) For the coating of the test tubes, 9 mg of active compound are first dissolved in 1 ml of acetone p.a. and then diluted to the desired concentration with acetone p.a. 250 μl of the solution are distributed homogeneously on the inner walls and the base of a 25 ml test tube by turning and rocking on an orbital shaker (rocking rotation at 30 rpm for 2 h). With 900 ppm active compound solution and internal surface 44.7 cm^2, given homogeneous distribution, an area-based dose of 5 μg/cm^2 is achieved.
After the solvent has evaporated off, the tubes are populated with 5-10 adult cat fleas (Ctenocephalides felis), sealed with a perforated plastic lid and incubated in a horizontal position at room temperature and ambient humidity. After 48 h, efficacy is determined. To this end, the test tubes are stood upright and the fleas are knocked to the base of the tube. Fleas which remain motionless at the base or move in an uncoordinated manner are considered to be dead or moribund.
100% efficacy means that all the fleas were dead or moribund. 0% efficacy means that no fleas were harmed.

Rhipicephalus sanguineus = Rhipicephalus sanguineus in vitro contact test; settings: application rate 5 μg/cm^2; adult dog ticks; after 48 h
Experimental: Rhipicephalus sanguineus—In Vitro Contact Tests
as §1
After the solvent has evaporated off, the tubes are populated with 5-10 adult dog ticks (Rhipicephalus sanguineus), sealed with a perforated plastic lid and incubated in a horizontal position in the dark at room temperature and ambient humidity. After 48 h, efficacy is determined. To this end, the ticks are knocked to the floor of the tube and incubated on a hotplate at 45-50° C. for not more than 5 min. Ticks which remain motionless on the floor or move in such an uncoordinated manner that they are unable to deliberately avoid the heat by climbing upwards are considered to be dead or moribund.
An efficacy of 100% means that all the ticks were dead or moribund. 0% efficacy means that none of the ticks had been harmed.

Amblyomma hebraeum = assay: Amblyomma hebaraeum test (AMBYHE), tick nymph immersion; settings: application rate 20 ppm; tick nymphs; after 42 days
Experimental: Amblyomma hebaraeum Test (AMBYHE) Solvent: dimethyl sulphoxide
(§2) To produce a suitable preparation of active compound, 10 mg of active compound are mixed with 0.5 ml of dimethyl sulphoxide, and the concentrate is diluted with water to the desired concentration.
Tick nymphs (Amblyomma hebraeum) are placed into perforated plastic beakers and immersed in the desired concentration for one minute. The ticks are transferred on filter paper into a Petri dish and stored in a climate-controlled cabinet.
After 42 days, the kill in % is determined. 100% means that all of the ticks have been killed; 0% means that none of the ticks have been killed.

[2] = system: Boophilus microplus Parkhurst strain, SP-resistant; assay: Boophilus microplus dip test (BOOPMI Dip); settings: application rate 20 ppm; engorged adult female cattle ticks; after 7 days
Experimental: Boophilus microplus—Dip Test (BOOPMI Dip) Test animals: cattle ticks (Boophilus microplus) Parkhurst strain, SP-resistant Solvent: dimethyl sulphoxide
10 mg of active compound are dissolved in 0.5 ml of dimethyl sulphoxide. To produce a suitable formulation, the active compound solution is diluted with water to the concentration desired in each case.
This active compound preparation is pipetted into tubes. 8-10 engorged adult female cattle ticks (Boophilus microplus) are transferred into a further tube with holes. The tube is immersed into the active compound preparation, and all the ticks are completely wetted. After the liquid has run out, the ticks are transferred on filter discs into plastic dishes and stored in a climate-controlled room.
Efficacy is assessed after 7 days by laying of fertile eggs. Eggs which are not visibly fertile are stored in a climate-controlled cabinet until the larvae hatch after about 42 days. An efficacy of 100% means that none of the ticks has laid any fertile eggs; 0% means that all the eggs are fertile.

Boophilus microplus = Boophilus microplus injection test (BOOPMI Inj); settings: application rate 4 μg/animal; injection into abdomen
Experimental: Boophilus microplus—Injection Test (BOOPMI Inj) Solvent: dimethyl sulphoxide
To produce a suitable preparation of active compound, 10 mg of active compound are mixed with 0.5 ml of solvent and the concentrate is diluted with solvent to the desired concentration.
1 μl of the active compound solution is injected into the abdomen of 5 engorged adult female cattle ticks (Boophilus microplus). The animals are transferred into dishes and kept in a climate-controlled room.
The activity is assessed after the desired time by laying of fertile eggs. Eggs which are not visibly fertile are stored in a climate-controlled cabinet until the larvae hatch after about 42 days. An efficacy of 100% means that none of the ticks has laid any fertile eggs; 0% means that all the eggs are fertile.

Ctenocephalides felis [3] = assay: Ctenocephalides felis oral test (CTECFE); settings: application rate 20 ppm in citrated cattle blood; after 2 days
Experimental: Ctenocephalides felis—Oral Test (CTECFE) Solvent: dimethyl sulphoxide
To produce a suitable preparation of active compound, 10 mg of active compound are mixed with 0.5 ml of dimethyl sulphoxide. Dilution with citrated cattle blood gives the desired concentration.
About 20 unfed adult cat fleas (Ctenocephalides felis) are placed into a chamber which is closed at the top and bottom with gauze. A metal cylinder whose bottom end is closed with parafilm is placed onto the chamber. The cylinder contains the blood/active compound preparation, which can be imbibed by the fleas through the parafilm membrane.
After 2 days, the kill in % is determined. 100% means that all of the fleas have been killed; 0% means that none of the fleas have been killed.

Lucilia cuprina = Lucilia cuprina test (LUCICU); settings: application rate 20 ppm; L1 larvae; after 2 days
Experimental: Lucilia cuprina-Test (LUCICU) Solvent: dimethyl sulphoxide
as §2
About 20 L1 larvae of the Australian sheep blowfly (Lucilia cuprina) are transferred into a test vessel containing minced horsemeat and the active compound preparation of the desired concentration.
After 2 days, the kill in % is determined. 100% means that all the larvae have been killed; 0% means that no larvae have been killed.

Musca domestica = Musca domestica test (MUSCDO); settings: application rate 20 ppm; adult houseflies; after 2 days
Experimental: Musca domestica-Test (MUSCDO) Solvent: dimethyl sulphoxide
as §2
Vessels containing a sponge treated with sugar solution and the active compound preparation of the desired concentration are populated with 10 adult houseflies (Musca domestica).
After 2 days, the kill in % is determined. 100% means that all of the flies have been killed; 0% means that none of the flies have been killed.

Tetranychus urticae = Tetranychus urticae spray test, OP-resistant (TETRUR); settings: application rate 100 g/ha; bean leaf discs; after 6 days
Experimental: Tetranychus urticae—Spray Test, OP-Resistant (TETRUR) Solvent: 78.0 parts by weight of acetone • • 1.5 parts by weight of dimethylformamide Emulsifier: alkylaryl polyglycol ether
To produce a suitable preparation of active compound, 1 part by weight of active compound is dissolved using the specified parts by weight of solvent and made up with water containing an emulsifier concentration of 1000 ppm until the desired concentration is attained. To produce further test concentrations, the preparation is diluted with emulsifier-containing water.
Discs of bean leaves (Phaseolus vulgaris) infested by all stages of the greenhouse red spider mite (Tetranychus urticae) are sprayed with an active ingredient formulation of the desired concentration.
After 6 days, efficacy in % is determined. 100% means that all the spider mites have been killed; 0% means that no spider mites have been killed.

N-{2-fluoro-5-[2′-methyl-5′-(pentafluoroethyl)-4′-(trifluoromethyl)-2′H-1,3′-bipyrazol-4-yl]benzyl}propanamide [Ic-1]
100%: efficacy (Ctenocephalides felis [1]) | efficacy (Rhipicephalus sanguineus) | efficacy (kill) (Amblyomma hebraeum) | efficacy (laying of fertile eggs) [2] | efficacy (laying of fertile eggs) (Boophilus microplus) | efficacy (kill) (Ctenocephalides felis [3]) | efficacy (kill) (Lucilia cuprina) | efficacy (kill) (Musca domestica) | efficacy (Tetranychus urticae)
